Experimental data reported in ChEMBL document CHEMBL1146730, “New pyrazolo[3,4-d]pyrimidines endowed with A431 antiproliferative activity and inhibitory properties of Src phosphorylation” (Bioorg Med Chem Lett, 2004).

Assays:
[1] = tested on: A-431; test: Tested for antiproliferative activity against human A431 cells; type: functional, cell-based
[2] = tested on: A-431; test: Inhibitory effect on phospho-Src/nonphospho after EGF (100 uM) stimulation of A431 cells (21); settings: Homo sapiens
[3] = tested on: A-431; test: Inhibitory effect on phospho-Src (Tyr416) after EGF (100 uM) stimulation of A431 cells (38); settings: Homo sapiens
[4] = tested on: A-431; test: cells; settings: Homo sapiens
Description: Inhibitory effect on nonphospho-Src after EGF (100 uM) stimulation of A431 cells (control=178)

| SMILES | IC50 [1] [µM] | further results |
| --- | --- | --- |
| CCCNc1ncnc2c1cnn2/C=C/c1ccccc1 | 61 |  |
| CCSc1nc(NCc2ccccc2)c2cnn(CC(Cl)c3ccccc3)c2n1 (configuration not stated) | 124 |  |
| CSc1nc(NCc2ccccc2)c2cnn(CC(Cl)c3ccccc3)c2n1 (configuration not stated) |  | IC50 [2]: 21 µM; IC50 [3]: 32 µM |
| CC(C)(C)n1nc(-c2ccc(Cl)cc2)c2c(N)ncnc21 |  | IC50 [2]: 17 µM; IC50 [3]: 22 µM; IC50 [4]: 131 µM |
| CCCCNc1nc(SCC)nc2c1cnn2CC(Cl)c1ccccc1 (configuration not stated) |  | IC50 [2]: 33 µM; IC50 [3]: 53 µM |
| CCCCNc1ncnc2c1cnn2/C=C/c1ccccc1 | 91 |  |
| CSc1nc(NCc2ccccc2)c2cnn(/C=C/c3ccccc3)c2n1 | 40 |  |
| C(=C\n1ncc2c(N3CCOCC3)ncnc21)/c1ccccc1 | 59 |  |
| COc1cc2ncnc(Nc3cccc(Cl)c3)c2cc1OC [TYRPHOSTIN AG-1478] | 20 |  |
| C(=C\n1ncc2c(N3CCCCC3)ncnc21)/c1ccccc1 | 69 |  |
| CSc1nc(N2CCOCC2)c2cnn(CC(Cl)c3ccccc3)c2n1 (configuration not stated) |  | IC50 [2]: 24 µM; IC50 [3]: 34 µM |
| C(=C\n1ncc2c(N3CCCC3)ncnc21)/c1ccccc1 | 63 |  |

Now from value to compound, other results behind:

| IC50 [1] [µM] | SMILES | further results |
| --- | --- | --- |
| 36 | CSc1nc(N2CCOCC2)c2cnn(/C=C/c3ccccc3)c2n1 |  |
| 27 | CCCCNc1nc(SC)nc2c1cnn2CC(Cl)c1ccccc1 (configuration not stated) |  |
| 54 | CSc1nc(N2CCCCC2)c2cnn(/C=C/c3ccccc3)c2n1 |  |
| 50 | CCSc1nc(N2CCOCC2)c2cnn(/C=C/c3ccccc3)c2n1 |  |
| 176 | CCSc1nc(N2CCCCC2)c2cnn(CC(Cl)c3ccccc3)c2n1 (configuration not stated) |  |
